{"source": "patent US10519119B2", "about": "“Nicotinic acid derivatives, their preparation and the use thereof” (XIAMEN INSTITUTE OF RARE EARTH MATERIALS, priority 2017, dated 2019)", "key": {"[1]": {"system": "human lung cancer cell line A549", "experiment": "MTT test of activity in inhibiting human lung cancer cell A549", "assay_type": "cell-based", "conditions": "for IC50: Homo sapiens, A549 cells, MTT method, cultivation 24 h with drug, OD at 595 nm; for inhibitory activity on lung cancer cell line A549: statement in words", "procedure": "(§1) The specific test process was as follows:\n(§2) (1) The lung cancer cell line A549 was plated in a 96-well plate and cultured in 100 μL medium. Until the cells were grown to 90%, 1 μL of the drug (i.e., the above example compounds) was added to the wells, each drug was tested for 8 different concentrations (the initial concentration of the drug, 50 μM, 5 μM, 500 nM, 50 nM, 5 nM, […], respectively), and each concentration of drug was experimented in 3 wells. After cultivation for 24 h, 20 μL of the already formulated 5 mg/mL MTT solution was added to each well, and the medium was aspirated after 4 hours, 150 μL DMSO was added to each well and its optical density (OD) value was measured at a wavelength of 595 nm. The negative control was DMSO.\n(§3) The IC50 value was calculated by GraphPad Prism5 software."}, "[2]": {"system": "colorectal cancer cell line HCT-116", "experiment": "MTT test of activity in inhibiting colorectal cancer cell line HCT-116", "assay_type": "cell-based, human", "conditions": "for IC50: Homo sapiens, HCT-116 cells, MTT method, same procedure as A549; for inhibitory activity on colorectal cancer cell line HCT116: statement in words", "procedure": "[The procedure below names another cell line; the source lists this cell line under the same test.] as §1, §2, §3"}, "[3]": {"system": "breast cancer cell line MCF-7", "experiment": "MTT test of activity in inhibiting breast cancer cell line MCF-7", "assay_type": "cell-based, human", "conditions": "for IC50: Homo sapiens, MCF7, MCF-7 cells, MTT method, same procedure as A549; for inhibitory activity on breast cancer cell line MCF-7: statement in words", "procedure": "[The procedure below names another cell line; the source lists this cell line under the same test.] as §1, §2, §3"}}}
{"smiles": "Cc1ccc(-c2cc(COC(=O)c3ccc(C(F)(F)F)nc3C)on2)cc1", "note": "[YP-78]", "values": [{"measurement": "IC50", "setting": "[1]", "result": 198, "unit": "µM"}, {"measurement": "inhibitory activity on lung cancer cell line A549", "setting": "[1]", "result": "strong inhibitory activity"}, {"measurement": "IC50", "setting": "[2]", "result": 72.5, "unit": "µM"}, {"measurement": "inhibitory activity on colorectal cancer cell line HCT116", "setting": "[2]", "result": "strong inhibitory activity"}, {"measurement": "IC50", "setting": "[3]", "result": 160, "unit": "µM"}, {"measurement": "inhibitory activity on breast cancer cell line MCF-7", "setting": "[3]", "result": "strong inhibitory activity"}]}
{"smiles": "COc1ccc(-c2cc(COC(=O)c3cc(Cl)cnc3Cl)on2)cc1", "note": "[YP-44]", "values": [{"measurement": "IC50", "setting": "[1]", "result": 172, "unit": "µM"}, {"measurement": "inhibitory activity on lung cancer cell line A549", "setting": "[1]", "result": "strong inhibitory activity"}, {"measurement": "IC50", "setting": "[2]", "result": 1640, "unit": "µM"}, {"measurement": "inhibitory activity on colorectal cancer cell line HCT116", "setting": "[2]", "result": "strong inhibitory activity"}, {"measurement": "IC50", "setting": "[3]", "result": 149, "unit": "µM"}, {"measurement": "inhibitory activity on breast cancer cell line MCF-7", "setting": "[3]", "result": "strong inhibitory activity"}]}
{"smiles": "O=C(OCc1cc(-c2ccc(Cl)cc2)no1)c1cc(Cl)cnc1Cl", "note": "[YP-51]", "values": [{"measurement": "IC50", "setting": "[1]", "result": 187, "unit": "µM"}, {"measurement": "inhibitory activity on lung cancer cell line A549", "setting": "[1]", "result": "strong inhibitory activity"}, {"measurement": "inhibitory activity on colorectal cancer cell line HCT116", "setting": "[2]", "result": "strong inhibitory activity"}, {"measurement": "inhibitory activity on breast cancer cell line MCF-7", "setting": "[3]", "result": "strong inhibitory activity"}]}
{"smiles": "COc1ccc(-c2cc(COC(=O)c3ccc(C(F)(F)F)nc3)on2)cc1", "note": "[YP-63]", "values": [{"measurement": "IC50", "setting": "[1]", "result": 154, "unit": "µM"}, {"measurement": "inhibitory activity on lung cancer cell line A549", "setting": "[1]", "result": "strong inhibitory activity"}, {"measurement": "IC50", "setting": "[2]", "result": 287, "unit": "µM"}, {"measurement": "inhibitory activity on colorectal cancer cell line HCT116", "setting": "[2]", "result": "strong inhibitory activity"}, {"measurement": "IC50", "setting": "[3]", "result": 132, "unit": "µM"}, {"measurement": "inhibitory activity on breast cancer cell line MCF-7", "setting": "[3]", "result": "strong inhibitory activity"}]}
{"smiles": "Cc1nc(C(F)(F)F)ccc1C(=O)OCc1cc(-c2ccc(Cl)cc2)no1", "note": "[YP-89]", "values": [{"measurement": "IC50", "setting": "[1]", "result": 896, "unit": "µM"}, {"measurement": "inhibitory activity on lung cancer cell line A549", "setting": "[1]", "result": "strong inhibitory activity"}, {"measurement": "IC50", "setting": "[2]", "result": 279, "unit": "µM"}, {"measurement": "inhibitory activity on colorectal cancer cell line HCT116", "setting": "[2]", "result": "strong inhibitory activity"}, {"measurement": "IC50", "setting": "[3]", "result": 124, "unit": "µM"}, {"measurement": "inhibitory activity on breast cancer cell line MCF-7", "setting": "[3]", "result": "strong inhibitory activity"}]}
{"smiles": "O=C(OCc1cc(-c2ccc(Cl)cc2)no1)c1ccc(Oc2ccccc2)nc1", "note": "[YP-108]", "values": [{"measurement": "IC50", "setting": "[1]", "result": 241, "unit": "µM"}, {"measurement": "inhibitory activity on lung cancer cell line A549", "setting": "[1]", "result": "strong inhibitory activity"}, {"measurement": "inhibitory activity on colorectal cancer cell line HCT116", "setting": "[2]", "result": "strong inhibitory activity"}, {"measurement": "IC50", "setting": "[3]", "result": 112, "unit": "µM"}, {"measurement": "inhibitory activity on breast cancer cell line MCF-7", "setting": "[3]", "result": "strong inhibitory activity"}]}
{"smiles": "O=C(OCc1cc(-c2ccc(Br)cc2)no1)c1ccc(C(F)(F)F)nc1", "note": "[YP-73]", "values": [{"measurement": "IC50", "setting": "[1]", "result": 207, "unit": "µM"}, {"measurement": "inhibitory activity on lung cancer cell line A549", "setting": "[1]", "result": "strong inhibitory activity"}, {"measurement": "inhibitory activity on colorectal cancer cell line HCT116", "setting": "[2]", "result": "strong inhibitory activity"}, {"measurement": "IC50", "setting": "[3]", "result": 43, "unit": "µM"}, {"measurement": "inhibitory activity on breast cancer cell line MCF-7", "setting": "[3]", "result": "strong inhibitory activity"}]}
